# Source: PubChem BioAssay (NCI)
#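 Each compound was tested at five concentrations against cells in 96-well plates for 48 hours. At the TGI there is no net growth.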
# Tests used:
# Experiment in all cases: growth of human tumour cells (NCI), 48 h
# 786-0 renal = tested on: 786-0 renal
# A549 NSCLC = tested on: A549 NSCLC
# ACHN renal = tested on: ACHN renal
# BT-549 breast = tested on: BT-549 breast
# CAKI-1 renal = tested on: CAKI-1 renal
# CCRF-CEM leukemia = tested on: CCRF-CEM leukemia
# COLO 205 colon = tested on: COLO 205 colon
# DU-145 prostate = tested on: DU-145 prostate
# EKVX NSCLC = tested on: EKVX NSCLC
# HCC-2998 colon = tested on: HCC-2998 colon
# HCT-116 colon = tested on: HCT-116 colon
# HCT-15 colon = tested on: HCT-15 colon
# HOP-62 NSCLC = tested on: HOP-62 NSCLC
# HS 578T breast = tested on: HS 578T breast
# HT29 colon = tested on: HT29 colon
# IGROV1 ovarian = tested on: IGROV1 ovarian
# K-562 leukemia = tested on: K-562 leukemia
# KM12 colon = tested on: KM12 colon
# LOX IMVI melanoma = tested on: LOX IMVI melanoma
# M14 melanoma = tested on: M14 melanoma
# MALME-3M melanoma = tested on: MALME-3M melanoma
# MCF7 breast = tested on: MCF7 breast
# MDA-MB-231 breast = tested on: MDA-MB-231 breast
# MDA-N = tested on: MDA-N
# MOLT-4 leukemia = tested on: MOLT-4 leukemia
# NCI-H226 lung = tested on: NCI-H226 lung
# NCI-H23 lung = tested on: NCI-H23 lung
# NCI-H460 lung = tested on: NCI-H460 lung
# NCI-H522 lung = tested on: NCI-H522 lung
# NCI/ADR-RES ovarian = tested on: NCI/ADR-RES ovarian
# OVCAR-4 ovarian = tested on: OVCAR-4 ovarian
# OVCAR-5 ovarian = tested on: OVCAR-5 ovarian
# OVCAR-8 ovarian = tested on: OVCAR-8 ovarian
# PC-3 prostate = tested on: PC-3 prostate
# SF-268 CNS = tested on: SF-268 CNS
# SF-295 CNS = tested on: SF-295 CNS
# SF-539 CNS = tested on: SF-539 CNS
# SK-MEL-2 melanoma = tested on: SK-MEL-2 melanoma
# SK-MEL-28 melanoma = tested on: SK-MEL-28 melanoma
# SK-MEL-5 melanoma = tested on: SK-MEL-5 melanoma
# SK-OV-3 ovarian = tested on: SK-OV-3 ovarian
# SN12C renal = tested on: SN12C renal
# SNB-19 CNS = tested on: SNB-19 CNS
# SNB-75 CNS = tested on: SNB-75 CNS
# SR leukemia = tested on: SR leukemia
# SW-620 colon = tested on: SW-620 colon
# T-47D breast = tested on: T-47D breast
# TK-10 renal = tested on: TK-10 renal
# U251 CNS = tested on: U251 CNS
# UACC-257 melanoma = tested on: UACC-257 melanoma
# UACC-62 melanoma = tested on: UACC-62 melanoma
# UO-31 renal = tested on: UO-31 renal
# A498 renal = tested on: A498 renal
# HL-60(TB) leukemia = tested on: HL-60(TB) leukemia
# HOP-92 NSCLC = tested on: HOP-92 NSCLC
# MDA-MB-435 = tested on: MDA-MB-435
# OVCAR-3 ovarian = tested on: OVCAR-3 ovarian
# RPMI-8226 leukemia = tested on: RPMI-8226 leukemia
# RXF 393 renal = tested on: RXF 393 renal
smiles,measurement,setting,value
CC1(C)OC(=O)C(C)(C)C(=O)O1,TGI,786-0 renal,> 100 µM
same,TGI,A549 NSCLC,> 100 µM
same,TGI,ACHN renal,> 100 µM
same,TGI,BT-549 breast,> 100 µM
same,TGI,CAKI-1 renal,> 100 µM
same,TGI,CCRF-CEM leukemia,> 100 µM
same,TGI,COLO 205 colon,> 100 µM
same,TGI,DU-145 prostate,> 100 µM
same,TGI,EKVX NSCLC,> 100 µM
same,TGI,HCC-2998 colon,> 100 µM
same,TGI,HCT-116 colon,> 100 µM
same,TGI,HCT-15 colon,> 100 µM
same,TGI,HOP-62 NSCLC,> 100 µM
same,TGI,HS 578T breast,> 100 µM
same,TGI,HT29 colon,> 100 µM
same,TGI,IGROV1 ovarian,> 100 µM
same,TGI,K-562 leukemia,> 100 µM
same,TGI,KM12 colon,> 100 µM
same,TGI,LOX IMVI melanoma,> 100 µM
same,TGI,M14 melanoma,> 100 µM
same,TGI,MALME-3M melanoma,> 100 µM
same,TGI,MCF7 breast,> 100 µM
same,TGI,MDA-MB-231 breast,> 100 µM
same,TGI,MDA-N,> 100 µM
same,TGI,MOLT-4 leukemia,> 100 µM
same,TGI,NCI-H226 lung,> 100 µM
same,TGI,NCI-H23 lung,> 100 µM
same,TGI,NCI-H460 lung,> 100 µM
same,TGI,NCI-H522 lung,> 100 µM
same,TGI,NCI/ADR-RES ovarian,> 100 µM
same,TGI,OVCAR-4 ovarian,> 100 µM
same,TGI,OVCAR-5 ovarian,> 100 µM
same,TGI,OVCAR-8 ovarian,> 100 µM
same,TGI,PC-3 prostate,> 100 µM
same,TGI,SF-268 CNS,> 100 µM
same,TGI,SF-295 CNS,> 100 µM
same,TGI,SF-539 CNS,> 100 µM
same,TGI,SK-MEL-2 melanoma,> 100 µM
same,TGI,SK-MEL-28 melanoma,> 100 µM
same,TGI,SK-MEL-5 melanoma,> 100 µM
same,TGI,SK-OV-3 ovarian,> 100 µM
same,TGI,SN12C renal,> 100 µM
same,TGI,SNB-19 CNS,> 100 µM
same,TGI,SNB-75 CNS,> 100 µM
same,TGI,SR leukemia,> 100 µM
same,TGI,SW-620 colon,> 100 µM
same,TGI,T-47D breast,> 100 µM
same,TGI,TK-10 renal,> 100 µM
same,TGI,U251 CNS,> 100 µM
same,TGI,UACC-257 melanoma,> 100 µM
same,TGI,UACC-62 melanoma,> 100 µM
same,TGI,UO-31 renal,> 100 µM
CSc1nc(=S)[nH]c2c1c(C)nn2-c1ccccc1,TGI,786-0 renal,88.1 µM
same,TGI,A498 renal,80.6 µM
same,TGI,A549 NSCLC,> 100 µM
same,TGI,ACHN renal,57.5 µM
same,TGI,BT-549 breast,> 100 µM
same,TGI,CAKI-1 renal,40.3 µM
same,TGI,CCRF-CEM leukemia,49 µM
same,TGI,COLO 205 colon,56.5 µM
same,TGI,DU-145 prostate,40.6 µM
same,TGI,EKVX NSCLC,46.6 µM
same,TGI,HCC-2998 colon,> 100 µM
same,TGI,HCT-116 colon,43.2 µM
same,TGI,HCT-15 colon,> 100 µM
same,TGI,HL-60(TB) leukemia,> 100 µM
same,TGI,HOP-62 NSCLC,> 100 µM
same,TGI,HOP-92 NSCLC,35.7 µM
same,TGI,HS 578T breast,> 100 µM
same,TGI,HT29 colon,> 100 µM
same,TGI,K-562 leukemia,51.9 µM
same,TGI,LOX IMVI melanoma,> 100 µM
same,TGI,M14 melanoma,> 100 µM
same,TGI,MALME-3M melanoma,41.5 µM
same,TGI,MCF7 breast,46.1 µM
same,TGI,MDA-MB-231 breast,64.9 µM
same,TGI,MDA-MB-435,> 100 µM
same,TGI,MDA-N,> 100 µM
same,TGI,MOLT-4 leukemia,45.3 µM
same,TGI,NCI-H226 lung,51.2 µM
same,TGI,NCI-H23 lung,45.8 µM
same,TGI,NCI-H460 lung,58.9 µM
same,TGI,NCI-H522 lung,65.4 µM
same,TGI,OVCAR-3 ovarian,> 100 µM
same,TGI,OVCAR-4 ovarian,40.9 µM
same,TGI,OVCAR-5 ovarian,> 100 µM
same,TGI,PC-3 prostate,68.3 µM
same,TGI,RPMI-8226 leukemia,47.7 µM
same,TGI,RXF 393 renal,94.1 µM
same,TGI,SF-268 CNS,> 100 µM
same,TGI,SF-295 CNS,84.4 µM
same,TGI,SF-539 CNS,98.2 µM
same,TGI,SK-MEL-2 melanoma,68.5 µM
same,TGI,SK-MEL-28 melanoma,> 100 µM
same,TGI,SK-MEL-5 melanoma,27.8 µM
same,TGI,SK-OV-3 ovarian,90.3 µM
same,TGI,SN12C renal,52.7 µM
same,TGI,SNB-19 CNS,> 100 µM
same,TGI,SR leukemia,42.8 µM
same,TGI,SW-620 colon,> 100 µM
same,TGI,T-47D breast,62.5 µM
same,TGI,TK-10 renal,> 100 µM
same,TGI,U251 CNS,> 100 µM
same,TGI,UACC-257 melanoma,51.9 µM
same,TGI,UACC-62 melanoma,35.3 µM
same,TGI,UO-31 renal,69.8 µM
C1CNOCCCONCCCNOCCCONC1,TGI,786-0 renal,> 100 µM
same,TGI,A498 renal,> 100 µM
same,TGI,A549 NSCLC,> 100 µM
same,TGI,ACHN renal,> 100 µM
same,TGI,BT-549 breast,> 100 µM
same,TGI,CAKI-1 renal,> 100 µM
same,TGI,CCRF-CEM leukemia,> 100 µM
same,TGI,COLO 205 colon,> 100 µM
same,TGI,DU-145 prostate,> 100 µM
same,TGI,EKVX NSCLC,> 100 µM
same,TGI,HCT-116 colon,> 100 µM
same,TGI,HCT-15 colon,> 100 µM
same,TGI,HL-60(TB) leukemia,> 100 µM
same,TGI,HOP-62 NSCLC,> 100 µM
same,TGI,HOP-92 NSCLC,82.1 µM
same,TGI,HS 578T breast,> 100 µM
same,TGI,HT29 colon,> 100 µM
same,TGI,IGROV1 ovarian,> 100 µM
same,TGI,K-562 leukemia,> 100 µM
same,TGI,KM12 colon,> 100 µM
same,TGI,LOX IMVI melanoma,> 100 µM
same,TGI,M14 melanoma,> 100 µM
same,TGI,MALME-3M melanoma,99.2 µM
same,TGI,MCF7 breast,> 100 µM
same,TGI,MDA-MB-231 breast,79.6 µM
same,TGI,MDA-MB-435,> 100 µM
same,TGI,MDA-N,> 100 µM
same,TGI,MOLT-4 leukemia,> 100 µM
same,TGI,NCI-H226 lung,> 100 µM
same,TGI,NCI-H23 lung,> 100 µM
same,TGI,NCI-H460 lung,94 µM
same,TGI,NCI-H522 lung,> 100 µM
same,TGI,NCI/ADR-RES ovarian,> 100 µM
same,TGI,OVCAR-3 ovarian,> 100 µM
same,TGI,OVCAR-4 ovarian,> 100 µM
same,TGI,OVCAR-5 ovarian,> 100 µM
same,TGI,OVCAR-8 ovarian,> 100 µM
same,TGI,PC-3 prostate,86 µM
same,TGI,RXF 393 renal,64.2 µM
same,TGI,SF-268 CNS,> 100 µM
same,TGI,SF-295 CNS,> 100 µM
same,TGI,SK-MEL-2 melanoma,> 100 µM
same,TGI,SK-MEL-28 melanoma,> 100 µM
same,TGI,SK-MEL-5 melanoma,> 100 µM
same,TGI,SK-OV-3 ovarian,> 100 µM
same,TGI,SN12C renal,> 100 µM
same,TGI,SNB-19 CNS,> 100 µM
same,TGI,SNB-75 CNS,> 100 µM
same,TGI,SW-620 colon,> 100 µM
same,TGI,T-47D breast,44.4 µM
same,TGI,TK-10 renal,84.5 µM
same,TGI,U251 CNS,> 100 µM
same,TGI,UACC-257 melanoma,> 100 µM
same,TGI,UACC-62 melanoma,> 100 µM
same,TGI,UO-31 renal,> 100 µM
CO/C(N)=C(\C#N)N=Cc1ccc2ccccc2c1,TGI,786-0 renal,> 100 µM
same,TGI,A498 renal,> 100 µM
same,TGI,A549 NSCLC,> 100 µM
same,TGI,ACHN renal,> 100 µM
same,TGI,BT-549 breast,> 100 µM
same,TGI,CAKI-1 renal,> 100 µM
same,TGI,CCRF-CEM leukemia,> 100 µM
same,TGI,COLO 205 colon,51.8 µM
same,TGI,DU-145 prostate,> 100 µM
same,TGI,EKVX NSCLC,> 100 µM
same,TGI,HCT-116 colon,> 100 µM
same,TGI,HL-60(TB) leukemia,15.6 µM
same,TGI,HOP-62 NSCLC,> 100 µM
same,TGI,HOP-92 NSCLC,> 100 µM
same,TGI,HS 578T breast,> 100 µM
same,TGI,HT29 colon,> 100 µM
same,TGI,IGROV1 ovarian,> 100 µM
same,TGI,K-562 leukemia,94.6 µM
same,TGI,KM12 colon,> 100 µM
same,TGI,LOX IMVI melanoma,> 100 µM
same,TGI,MALME-3M melanoma,> 100 µM
same,TGI,MDA-MB-231 breast,> 100 µM
same,TGI,MDA-MB-435,> 100 µM
same,TGI,MDA-N,> 100 µM
same,TGI,MOLT-4 leukemia,> 100 µM
same,TGI,NCI-H226 lung,> 100 µM
same,TGI,NCI-H23 lung,> 100 µM
same,TGI,NCI-H522 lung,> 100 µM
same,TGI,NCI/ADR-RES ovarian,> 100 µM
same,TGI,OVCAR-3 ovarian,> 100 µM
same,TGI,OVCAR-8 ovarian,> 100 µM
same,TGI,PC-3 prostate,> 100 µM
same,TGI,RPMI-8226 leukemia,> 100 µM
same,TGI,RXF 393 renal,> 100 µM
same,TGI,SF-268 CNS,> 100 µM
same,TGI,SF-295 CNS,> 100 µM
same,TGI,SK-MEL-2 melanoma,> 100 µM
same,TGI,SK-MEL-28 melanoma,> 100 µM
same,TGI,SK-MEL-5 melanoma,> 100 µM
same,TGI,SK-OV-3 ovarian,> 100 µM
same,TGI,SN12C renal,> 100 µM
same,TGI,SNB-75 CNS,> 100 µM
same,TGI,SR leukemia,> 100 µM
same,TGI,SW-620 colon,> 100 µM
same,TGI,T-47D breast,> 100 µM
same,TGI,TK-10 renal,> 100 µM
same,TGI,U251 CNS,> 100 µM
same,TGI,UACC-257 melanoma,91.3 µM
same,TGI,UACC-62 melanoma,> 100 µM
same,TGI,UO-31 renal,> 100 µM
